Source: publication PMC11995724, “Antibiotic target discovery by integrated phenotypic and activity-based profiling of electrophilic fragments” (Cell chemical biology, 2025)

Experiment: in vitro
Settings: human, hek293t cells

Row | Compound | viability at 48 h, 25 µM [%]
1 | CC(Cl)C(=O)NCc1nc(N(C)C)no1 (stereo not drawn) [7-A04, 2-chloro-N-{[3-(dimethylamino)-1,2,4-oxadiazol-5-yl]methyl}propanamide] | 92.2
2 | Cc1cc(C=C(C#N)C(N)=O)c(C)n1-c1cccc2ccccc12 [9-I12, 2-cyano-3-[2,5-dimethyl-1-(naphthalen-1-yl)-1H-pyrrol-3-yl]prop-2-enamide] | 86.9
3 | C=CC(=O)N(C)C[C@@H]1CCC(=O)N1 [3-A22, N-methyl-N-{[(2S)-5-oxopyrrolidin-2-yl]methyl}prop-2-enamide] | 150
4 | Cc1csc(COC2CCN(C(=O)CCl)C2)n1 (stereo not drawn) [5-M08, 2-chloro-1-{3-[(4-methyl-1,3-thiazol-2-yl)methoxy]pyrrolidin-1-yl}ethan-1-one] | 1.8
5 | N#CC(=Cc1csc(COc2ccccc2)n1)C(N)=O [9-B12, 2-cyano-3-[2-(phenoxymethyl)-1,3-thiazol-4-yl]prop-2-enamide] | 116
6 | C=CC(=O)N(Cc1cc(F)cc(Cl)c1)C(C)C1CCOCC1 (stereo not drawn) [1-F13, N-[(3-chloro-5-fluorophenyl)methyl]-N-[1-(oxan-4-yl)ethyl]prop-2-enamide] | 110
7 | C=CC(=O)NC1(c2ncon2)CC1 [1-A05, N-[1-(1,2,4-oxadiazol-3-yl)cyclopropyl]prop-2-enamide] | 68.7
8 | CC(C)NC(=O)C(C#N)=Cc1ccc(F)cc1 [9-I09, 2-cyano-3-(4-fluorophenyl)-N-(propan-2-yl)prop-2-enamide] | 119
9 | C=CC(=O)Nc1ccc(-c2noc(C)n2)cc1 [1-K16, N-[4-(5-methyl-1,2,4-oxadiazol-3-yl)phenyl]prop-2-enamide] | 60.2
10 | N#CC(=Cc1ccc(Cl)cc1)C(=O)Nc1ccncc1 [8-K20, 3-(4-chlorophenyl)-2-cyano-N-(pyridin-4-yl)prop-2-enamide] | 61.4
11 | C=CC(=O)N1CCC(C(=O)N2CCOC(c3cccc(F)c3)C2)CC1 (stereo not drawn) [2-L14, 1-{4-[2-(3-fluorophenyl)morpholine-4-carbonyl]piperidin-1-yl}prop-2-en-1-one] | 102
12 | Cc1cc(CN(C(=O)CCl)c2cn(C)nn2)ccc1Cl [5-I12, 2-chloro-N-[(4-chloro-3-methylphenyl)methyl]-N-(1-methyl-1H-1,2,3-triazol-4-yl)acetamide] | 13.7
13 | C=CC(=O)NCCC(=O)N1CCN(c2nc(C)cs2)CC1 [3-F07, N-{3-[4-(4-methyl-1,3-thiazol-2-yl)piperazin-1-yl]-3-oxopropyl}prop-2-enamide] | 52.1
14 | CCCN(CC1CC1)C(=O)CCl [5-H11, 2-chloro-N-(cyclopropylmethyl)-N-propylacetamide] | 1.45
15 | CC(Cl)C(=O)N1C[C@@H]2CCC[C@@]2(c2nc(-c3cnccn3)no2)C1 (mixture of isomers) [7-C03, rac-1-[(3aR,6aR)-3a-[3-(pyrazin-2-yl)-1,2,4-oxadiazol-5-yl]-octahydrocyclopenta[c]pyrrol-2-yl]-2-chloropropan-1-one] | 113
16 | CC(Cl)C(=O)NCC1CCN(C)c2ccccc21 (stereo not drawn) [7-J11, 2-chloro-N-[(1-methyl-1,2,3,4-tetrahydroquinolin-4-yl)methyl]propanamide] | 79.9
17 | CCCn1c(C)cc(C=C(C#N)C(=O)Nc2ccccc2)c1C [8-H05, 2-cyano-3-(2,5-dimethyl-1-propyl-1H-pyrrol-3-yl)-N-phenylprop-2-enamide] | 108
18 | N#CC(=Cc1ccc(Cl)cc1Cl)C(=O)Nc1ccncc1 [8-M22, 2-cyano-3-(2,4-dichlorophenyl)-N-(pyridin-4-yl)prop-2-enamide] | 67

Row | Compound | viability at 48 h, 25 µM [%]
19 | CC(Cl)C(=O)N(C)CCOc1ccc(Cl)cc1 (stereo not drawn) [6-C12, 2-chloro-N-[2-(4-chlorophenoxy)ethyl]-N-methylpropanamide] | 81.3
20 | COc1cc(C=C(C#N)C(=O)NC(C)C)cc(Cl)c1O [9-K11, 3-(3-chloro-4-hydroxy-5-methoxyphenyl)-2-cyano-N-(propan-2-yl)prop-2-enamide] | 115
21 | CCOC(=O)c1c(C)[nH]c(C)c1C(=O)CCl [10-C10, ethyl 4-(2-chloroacetyl)-2,5-dimethyl-1H-pyrrole-3-carboxylate] | 101
22 | CC(Cl)C(=O)NCC(NS(=O)(=O)N(C)C)C1CCCC1 (stereo not drawn) [7-G16, 2-chloro-N-{2-cyclopentyl-2-[(dimethylsulfamoyl)amino]ethyl}propanamide] | 91.3
23 | Cc1ccc(N(CCC#N)C(=O)CCl)cc1C [4-A03, 2-chloro-N-(2-cyanoethyl)-N-(3,4-dimethylphenyl)acetamide] | 0.265
24 | CC(Cl)C(=O)NCc1noc2ccccc12 (stereo not drawn) [7-I14, N-[(1,2-benzoxazol-3-yl)methyl]-2-chloropropanamide] | 77.8
25 | O=C(CCl)N(CC1CCCO1)C1CCS(=O)(=O)C1 (stereo not drawn) [5-N16, 2-chloro-N-(1,1-dioxo-1lambda6-thiolan-3-yl)-N-[(oxolan-2-yl)methyl]acetamide] | 2.2
26 | CCc1oc2ccccc2c1C=C(C#N)C(=O)NC1CC1 [9-M12, 2-cyano-N-cyclopropyl-3-(2-ethyl-1-benzofuran-3-yl)prop-2-enamide] | 74.5
27 | C=CC(=O)N(Cc1cccc(F)c1F)C1CCCC(F)(F)C1 (stereo not drawn) [1-N13, N-(3,3-difluorocyclohexyl)-N-[(2,3-difluorophenyl)methyl]prop-2-enamide] | 136
28 | CN(C)c1ccc(C=C(C#N)C(=O)Nc2ccccc2C(=O)O)cc1 [9-I08, 2-{2-cyano-3-[4-(dimethylamino)phenyl]prop-2-enamido}benzoic acid] | 95.5
29 | Cc1cc(C=C(C#N)C(=O)Nc2nccs2)ccc1-n1cncn1 [9-J14, 2-cyano-3-[3-methyl-4-(1H-1,2,4-triazol-1-yl)phenyl]-N-(1,3-thiazol-2-yl)prop-2-enamide] | 104
30 | COc1ccc(C=C(C#N)C(=O)Nc2ccccc2Cl)cc1O [8-C21, N-(2-chlorophenyl)-2-cyano-3-(3-hydroxy-4-methoxyphenyl)prop-2-enamide] | 82.8
31 | C=CC(=O)Nc1ccc(C(=O)N[C@@H]2CCN(C(C)=O)C2)cc1 [2-F20, N-[(3R)-1-acetylpyrrolidin-3-yl]-4-(prop-2-enamido)benzamide] | 73.4
32 | O=C(CCl)N(Cc1ccccc1)c1nc2c(s1)CCCC2 [4-C17, N-benzyl-2-chloro-N-(4,5,6,7-tetrahydro-1,3-benzothiazol-2-yl)acetamide] | 0.212
33 | CN(C)c1ccc(C=C(C#N)C(=O)Nc2ccc3c(c2)OCCO3)cc1 [9-B21, 2-cyano-N-(2,3-dihydro-1,4-benzodioxin-6-yl)-3-[4-(dimethylamino)phenyl]prop-2-enamide] | 110
34 | O=C(CCl)Nc1c(Cl)c(Cl)cc(Cl)c1Cl [4-O16, 2-chloro-N-(2,3,5,6-tetrachlorophenyl)acetamide] | 1.16
35 | CC(Cl)C(=O)NCCCc1c[nH]c2ccc(F)cc12 (stereo not drawn) [7-J09, 2-chloro-N-[3-(5-fluoro-1H-indol-3-yl)propyl]propanamide] | 96
36 | N#CC(=Cc1cccc([N+](=O)[O-])c1)C(=O)NCc1ccc(Cl)cc1 [8-F16, N-[(4-chlorophenyl)methyl]-2-cyano-3-(3-nitrophenyl)prop-2-enamide] | 0.958
